According to patent US12544370B2, “Methods for cancer therapy” (ASCENTAGE PHARMA (SUZHOU) CO., LTD., priority 2018, dated 2026):

Assays:
[1] = system: TKI-resistant patients with chronic phase (CP) or accelerated phase (AP) CML; test: Phase I study in TKI-resistant CML, efficacy (Example 1); assay type: in vivo, human; conditions: for CHR achieved: 2 mg to 60 mg, within 3 cycles; for CCyR achieved / MCyR achieved: evaluable ≥3 cycles; for MCyR achieved: 12 mg to 50 mg
Text: (§1) The eligible patients received treatments until disease progression or intolerable toxicities. The primary efficacy endpoint in the CML AP and CP patients, was complete hematological response (CHR) and major cytogenetic response (MCyR) respectively, MCyR includes partial cytogenetic response (PCyR) and complete cytogenetic response (CCyR). Blood samples were collected at various time points on Day 1-2 and Day 27-28 during cycle 1 for PK analyses.

[2] = system: patients with chronic phase (CP/CML-CP) or accelerated phase (AP/CML-AP) CML resistant to or intolerant of ≥2 prior TKIs or with BCR-ABL T315I; test: Phase 1 trial in resistant CML, further efficacy (Example 2); assay type: in vivo, human
Text: (§2) The eligible patients received continuous treatment until disease progression or unacceptable toxicity, consent withdrawal, or death. The primary efficacy endpoints were major cytogenetic response (MCyR) for CP and complete hematological response (CHR) for AP. MCyR includes partial cytogenetic response (PCyR) and complete cytogenetic response (CCyR). Blood samples were collected at various time points on Day 1-2 and Day 27-28 during cycle 1 for PK analyses.

[3] = Phase 1 trial, pharmacokinetics (Example 2); conditions: for half-life / Tmax: human, in vivo; for Tmax: median Tmax
Text: as §2

[4] = system: CRKL phosphorylation in PBMCs, a biomarker of BCR-ABL inhibition; test: Phase 1 trial, CRKL phosphorylation in PBMCs (Example 2); assay type: in vivo, human; conditions: 53 evaluable patients
Text: as §1

[5] = Example 1, Table 2, T315I mutation
[6] = Example 1, Table 2, Without T315I mutation
[7] = FIG. 2A, CML-CP, 24 patients T315I−
[8] = FIG. 2A, CML-CP, 42 patients T315I+
[9] = FIG. 2A, CML-CP, total 66 patients
[10] = FIG. 3A, 30 mg, CML-CP, 7 patients T315I+
[11] = FIG. 3A, 30 mg, CML-CP, 7 patients T315I−
[12] = FIG. 3A, 30 mg, CML-CP, total 14 patients
[13] = FIG. 3B, 40 mg, CML-CP, 8 patients T315I−
[14] = FIG. 3B, 40 mg, CML-CP, 10 patients T315I+
[15] = FIG. 3B, 40 mg, CML-CP, total 18 patients
[16] = FIG. 3C, 50 mg, CML-CP, 4 patients T315I−
[17] = FIG. 3C, 50 mg, CML-CP, 8 patients T315I+
[18] = FIG. 3C, 50 mg, CML-CP, total 12 patients
[19] = Table 4, AP-CML, With T315I mut., 11 evaluable
[20] = Table 4, AP-CML, With T315I mut., 11 evaluated
[21] = Table 4, AP-CML, Without T315I mut., 3 evaluable
[22] = Table 4, AP-CML, Without T315I mut., 3 evaluated
[23] = Table 4, CP-CML, With T315I mut., 48 evaluable
[24] = Table 4, CP-CML, With T315I mut., 51 evaluated
[25] = Table 4, CP-CML, Without T315I mut., 33 evaluable
[26] = Table 4, CP-CML, Without T315I mut., 35 evaluated

Cc1ccc(C(=O)Nc2ccc(CN3CCN(C)CC3)c(C(F)(F)F)c2)cc1C#Cc1cnc2[nH]ncc2c1 [compound of formula (I-A), 3-(2-(1H-pyrazolo[3,4-b]pyridin-5-yl)ethynyl)-4-methyl-N-(4-((4-methylpiperazin-1-yl)methyl)-3-(trifluoromethyl)phenyl)-benzamide]
activity by T315I mutation status at baseline ([1]; Example 1, Table 2): highly active in patients with or without T315I mutation at baseline | Complete cytogenetic response, responders/evaluable ([1]; Example 1, Table 2, All): 14/47 | Complete hematological response, responders/evaluable ([1]; Example 1, Table 2, All): 65/70 | Major cytogenetic response, responders/evaluable ([1]; Example 1, Table 2, All): 24/47 | Major molecular response, percent ([1]; Example 1, Table 2, All): (13%) | Major molecular response, responders/evaluable ([1]; Example 1, Table 2, All): 6/48 | Complete cytogenetic response, percent [1, 5]: (45%) | Complete cytogenetic response, responders/evaluable [1, 5]: 13/29 | Complete hematological response, percent [1, 5]: (89%) | Complete hematological response, responders/evaluable [1, 5]: 40/45 | Major cytogenetic response, percent [1, 5]: (59%) | Major cytogenetic response, responders/evaluable [1, 5]: 17/29 | Major molecular response, percent [1, 5]: (20%) | Major molecular response, responders/evaluable [1, 5]: 6/30 | Complete cytogenetic response, percent [1, 6]: (6%) | Complete cytogenetic response, responders/evaluable [1, 6]: 1/18 | Complete hematological response, percent [1, 6]: (100%) | Complete hematological response, responders/evaluable [1, 6]: 25/25 | Major cytogenetic response, percent [1, 6]: (39%) | Major cytogenetic response, responders/evaluable [1, 6]: 7/18 | Major molecular response, responders/evaluable [1, 6]: 0/18 | CHR achieved ([1]; Example 1, AP patients): 7 (58%) n (%) | CCyR achieved ([1]; Example 1, AP patients): 2 (25%) n (%) | MCyR achieved ([1]; Example 1, AP patients): 3 (38%) n (%) | MMR achieved ([1]; Example 1, CP patients): 6 (15%) n (%) | CHR achieved ([1]; Example 1, CP patients): 58 (100%) n (%) | CCyR achieved ([1]; Example 1, CP patients): 12 (31%) n (%) | MCyR achieved ([1]; Example 1, CP patients): 21 (54%) n (%) | patients who achieved MCyR or MMR at the end of cycle ([1]; Example 1, cycle number not given): More than 65% | CHR ([1]; FIG. 1A, CML-CP, 32 patients T315I−): 100% | CHR ([1]; FIG. 1A, CML-CP, 50 patients T315I+): 96% | CHR ([1]; FIG. 1A, CML-CP, total 82 patients): 98% | CHR ([1]; FIG. 1B, CML-AP, 3 patients T315I−): 100% | CHR ([1]; FIG. 1B, CML-AP, 11 patients T315I+): 82% | CHR ([1]; FIG. 1B, CML-AP, total 14 patients): 86% | CCyR [1, 7]: 17% | MCyR [1, 7]: 46% | PCyR [1, 7]: 29% | CCyR [1, 8]: 74% | MCyR [1, 8]: 78% | PCyR [1, 8]: 4% | CCyR [1, 9]: 53% | MCyR [1, 9]: 67% | PCyR [1, 9]: 14% | response rate (cytogenetic) ([1]; FIG. 2B, CML-AP, 3 patients T315I−): 0 | CCyR ([1]; FIG. 2B, CML-AP, 9 patients T315I+): 33% | MCyR ([1]; FIG. 2B, CML-AP, total 12 patients): 25% | CCyR [1, 10]: 57% | MCyR [1, 10]: 71% | PCyR [1, 10]: 14% | CCyR [1, 11]: 14% | MCyR [1, 11]: 28% | PCyR [1, 11]: 14% | CCyR [1, 12]: 36% | MCyR [1, 12]: 50% | PCyR [1, 12]: 14% | CCyR [1, 13]: 13% | MCyR [1, 13]: 50% | PCyR [1, 13]: 38% | CCyR [1, 14]: 60% | MCyR [1, 14]: 60% | CCyR [1, 15]: 38% | MCyR [1, 15]: 54% | PCyR [1, 15]: 16% | CCyR [1, 16]: 25% | MCyR [1, 16]: 50% | PCyR [1, 16]: 25% | CCyR [1, 17]: 75% | MCyR [1, 17]: 100% | PCyR [1, 17]: 25% | CCyR [1, 18]: 58% | MCyR [1, 18]: 83% | PCyR [1, 18]: 25% | MMR ([1]; FIG. 4A, CML-CP, 24 patients T315I−): 4% | MMR ([1]; FIG. 4A, CML-CP, 43 patients T315I+): 47% | MMR ([1]; FIG. 4A, CML-CP, total 67 patients): 31% | MMR ([1]; FIG. 4B, CML-AP, 3 patients T315I−): 0% | MMR ([1]; FIG. 4B, CML-AP, 9 patients T315I+): 11% | MMR ([1]; FIG. 4B, CML-AP, total 12 patients): 8% | progression free survival (PFS) rate at 18-month ([2]; AP patients (FIG. 7B)): 61% | progression free survival (PFS) rate at 18-month ([2]; CP patients (FIG. 7B)): 94% | anti-leukemic activity by dose ([2]; Example 2): potent anti-leukemic activities at doses ≥12 mg QOD | CHR achieved ([2]; Example 2, 68 evaluable patients with non-CHR at baseline (CP+AP)): 63 (92.6%) n (%) | Complete molecular response, percent ([2]; Table 4, AP-CML, All Patients, 14 evaluated): (14.3%) | Complete hematological response, percent ([2]; Table 4, AP-CML, With T315I mut., 10 evaluable): (80.0%) | Complete cytogenetic response, percent [2, 19]: (45.5%) | Major cytogenetic response, percent [2, 19]: (54.5%) | Complete molecular response, percent [2, 20]: (18.2%) | Major/Complete molecular response, percent [2, 20]: (45.5%) | Complete cytogenetic response [2, 21]: 0 n(%) | Complete hematological response [2, 21]: 3 (100.0%) n(%) | Major cytogenetic response [2, 21]: 0 n(%) | Complete molecular response [2, 22]: 0 n(%) | Major/Complete molecular response [2, 22]: 0 n(%) | Complete molecular response, percent ([2]; Table 4, CP-CML, All Patients, 86 evaluated): (20.9%) | Complete hematological response, percent ([2]; Table 4, CP-CML, With T315I mut., 33 evaluable): (97.0%) | Complete cytogenetic response, percent [2, 23]: (77.1%) | Major cytogenetic response, percent [2, 23]: (81.3%) | Complete molecular response, percent [2, 24]: (29.4%) | Major/Complete molecular response, percent [2, 24]: (52.9%) | Complete hematological response, percent ([2]; Table 4, CP-CML, Without T315I mut., 22 evaluable): (90.9%) | Complete cytogenetic response, percent [2, 25]: (36.4%) | Major cytogenetic response, percent [2, 25]: (51.5%) | Complete molecular response, percent [2, 26]: (8.6%) | Major/Complete molecular response, percent [2, 26]: (14.3%) | time at which peak concentration was reached ([3]; Day 1, single oral administration, 1-60 mg): 1 to 12 h | time at which peak concentration was observed ([3]; Day 27, QOD): 1 to 12 h | half-life ([3]; mean terminal T1/2, Day 1, 1-60 mg, watching time window 48 hrs): 17.5 to 36.5 h | half-life ([3]; mean terminal T1/2, Day 27, watching time window 48 hrs): 19.8 to 42.5 h | Tmax ([3]; Day 1, 1-60 mg): 4 to 8 h | Tmax ([3]; Day 27, QOD): 4 to 6 h | reduction of CRKL phosphorylation in PBMCs [4]: dose and time dependent
